In patent EP1024807B1, “USE OF THE COMPOUND 2-METHOXYPHENYL-1-METHYL-5P-METHYLBENZOYL-PYRROL-2-ACETAMIDO ACETATE FOR THE PRODUCTION OF AN ANTI-INFLAMMATORY DRUG WITH PREVENTION OF GASTRIC HYPERSECRETION AND RENAL IMPAIRMENT” (MEDOSAN Ricerca S.r.l., priority 1997, dated 1999):

Key:
gastric PGE2 = test: Effect on gastric PGE2 in the rat; assay type: in vivo
Source text: Moreover, as with all the NSAIDs currently aveilable, it inhibits gastric PGE2 in the rat, albeit to a lesser degree than ASA (Table 7).

patients [1] = conditions: 336 patients, Diclofenac 100mg, cited from earlier work; for Suspensions of treatment: number of patients, 180 days of treatment; for % of totale: suspensions of treatment, 180 days
[2] = tested on: post-traumatic arthralgia; test: Clinical comparison in post-traumatic arthralgia; assay type: in vivo, man
Source text: The same can be said in the treatment of post-traumatic arthralgia.

Rats [3] = test: Diuresis in normally hydrated rats; assay type: in vivo
Description: In the course of various studies conducted on animals to show the lack of renal impairment, a test was carried out to compare the diuresis in normally hydrated rats treated orally for 8 consecutive days with amtolmeting guacyl and diclofenac, which is also a NSAID. […] It is to be stressed that the behaviour of diclofenac is completely in line with the behaviour of a NSAID as known in the art, that is to say to markedly reduce the diuresis, while that of amtolmeting guacyl is completely unforeseeable.
Repeated doses (one per day) for 8 days increased diuresis in the treated rats by 35% (see fig. 13).

patients [4] = test: Clinical trials: tolerability, adverse events and suspensions of treatment; assay type: in vivo, man; conditions: 31 comparative and 6 non-comparative clinical trials, 1596 patients
Source text: Interest in the amtolmetin guacyl molecule arose following a thorough analysis of the results of 31 comparative and 6 non-comparative clinical trials involving 1596 patients. […] Turthermore the physician, being aware of administering an NSAID, was expecting adverse events and could not be expected to be an impartial observer. The few cases of gastro-intestinal phenomena reported with amtolmetin guacyl were transitory and in no event accompanied by the presence of occult blood in the stools. Moreover, even in the presence of a reported side-effect it was almost never necessary to suspend treatment (0.4% of suspensions).
Following are summarized the results obtained on a total of 1596 patients in 37 clinical trials.
Confirmation of the above described advantages is the very low incidence of treatment suspension for adverse events found in clinics (Table 17), which is not the case for most of NSAIDs known in the art (Table 18).

Rats [5] = test: Carrageenan pleurisy, exudate volume at 4 hours; assay type: in vivo
Description: Compounds were administered orally 1 hour prior to and 1 hour post pleurisy induction in a volume of 0.5 ml 1% gum tragacanth. Indomethacin was used at 3 mg/kg. MED 15 was used at 25, 50 and 100 mg/kg.
A 1% solution of carrageenan in sterile saline was prepared. The solution was placed in an incubator at 37°C for half an hour to allow complete hydration of the carrageenan. The solution was then mixed to homogeneity.
A 21Gx40mm syringe needle was reduced in length to 5mm and fitted to a 1ml syringe containing the irritant. Rats were lightly anaesthetised with halothane. Each animal was placed on its left side. The skin over the thorax was lifted with and a 1cm incision made through the skin with a pair of scissors. The wound was opened to expose the underlying muscle. Using a scalpel, a 2-3mm incision was made into the muscle of the 5th-6th intercostal space. A volume of 0.15ml of carrageenan solution was then injected into the pleural cavity. The wound was closed with a 11mm Michel clip and the animal allowed to recover from the anaesthetic. Groups of animals were killed 4 hours after pleurisy induction.
Lavage solution: One part of 3.15% trisodium citrate solution, mixed with nine parts of Hank's balanced salt solution.
Rats were killed by over exposure to carbon dioxide. For each rat the skin over the thorax was moistened with IMS alcohol. The skin over the sternum was then lifted and a 5cm cut made, to expose the musculature of the upper abdomen and thoracic cavity. The muscle overlying the xiphisternum was lifted with tissue forceps and a 1cm cut made through the muscle to reveal the cartilage. This was then lifted and the diaphragm perforated just beneath the cartilage. Two cuts were then made through the rib cage either side of the cartilage to form a flap which could be folded back to expose the thoracic cavity.
Using a syringe, 1ml of lavage fluid was introduced into the thoracic cavity. The fluid was aspirated 2-3 times with a 3ml pastette to wash the cavity, before being collected into separate 10ml conical-based plastic test-tubes. Any blood contaminated fluids were rejected.
The mass of each tube with fluid was determined. By subtracting the mass of an empty tube from these values, and assuming a density for the fluid of 1g/cm^3, the fluid volume was quantified.
Results were analysed by ANOVA followed by Bonferroni T-test. Values of p<0.05 were considered significant.
Dosing was one hour prior to and one hour post pleurisy induction and inflammation was assessed at 4 hours.

Rats [6] = test: Adjuvant arthritis (joint diameter and patellar bone mass); assay type: in vivo; conditions: for % Change: ([left-right]/right)X100
Description: The drugs were administered daily by oral gavage for 4 days (day 0-3); piroxicam and MED 15 were dissolved in 5% Gum arabic + 0.01% Tween 80, and administered in a volume of 0.5ml. Piroxicam was administered as 3mg/kg and MED 15 was administered as 25, 50 and 100mg/kg doses. Table 8 bis illustrating dosage regimes. L=left stifle joint, R=Right stifle joint.
Under halothane anaesthesia, rats received 200µg of heat-killed finely ground Mycobactyerium tubercolosis in 25µl (80mg/10ml sterile saline) injected intra-articulary into the left stifle joint. The contralateral joint received 25µl 0.9% sterile saline. Control animals received 25µl of 0.9% sterile saline in both knees. SGE 50µl microsyringes with a volume lock calibrated at 25µl were used with 30G stainless steel needles. Solutions were prepared sterile, and aseptic technique was used throughout, with sterilisation of syringes between groups.
The rats were killed by carbon dioxide suffocation. The body weight was noted and the skin overlying the stifle joints was divided and the joint diameters assessed in mm using Mitutoyo vernier callipers (530-312, 0.02mm).
The patellae were dissected, weighed (Sartorius, 0.01mg) and then immersed in 1ml digestion buffer (see below) to remove soft tissue.
Digestive buffer was prepared fresh to the following formula; disodium hydrogen orthophosphate 20mM, EDTA 1mM and diothiothreitol at 2mM. Papain (EC 3.4.22.2) was added at a concentration of 6U/ml. Each patella was digested in 1ml of digestive buffer at 56°C for 4 hours. The residual paterllar bones were dried (100°C 24 hours) and weighed (Sartorius 0.01mg).
Results are presented as follows: left and right parameter alone, the difference between arthritic and contralateral control joint (left-right); and % difference between arthritic and control joints ([left-right]/right]X100).
Calculations were carried out using the spreadsheet program Lotus 123. Statistical comparisons were made between the absolute differences using INSTAT Mann Whitney unpaired two-tailed statistical test.

CC(=O)Oc1ccccc1C(=O)O [ASA, acetyl salicylic acid, reference compound]
%inhibition (gastric PGE2; gastric PGE2 versus controls): 86.7%
PGE2 (ngtg^Δ tissue)±S.E. (gastric PGE2; gastric tissue, rat, controls 108.7±23.9): 14.4±4.5 nanograms for gram of tissue

O=C(O)Cc1ccccc1Nc1c(Cl)cccc1Cl [Diclofenac, reference compound]
Suspensions of treatment (patients [1]): 63
% of totale (patients [1]): 18,7%
duration of effect [2]: 3 h
latency time [2]: 20 min
time to reach peak effect [2]: 1 h
decreased diuresis (Rats [3]; single dose, average): 10%
diuresis (Rats [3]; treated orally for 8 consecutive days, fig. 13): clear decrease

COc1ccc2c(c1)c(CC(=O)O)c(C)n2C(=O)c1ccc(Cl)cc1 [Indomethacin, reference compound]
incidence of adverse events involving the stomach (patients [4]): ≥ 30%
Exudate volume (Rats [5]; 3mg/kg orally 1 hour prior to and 1 hour post induction, 4 hour, control 0.94±0.04): 0.47 ± 0.11 mL
reduction in exudate volume (Rats [5]; 3mg/kg, compared to gum tragacanth control): 50%

Cc1cnc(NC(=O)C2=C(O)c3ccccc3S(=O)(=O)N2C)s1 [Meloxicam]
Suspensions of treatment (patients [1]): 42
% of totale (patients [1]): 12,4%

CN1C(C(=O)Nc2ccccn2)=C(O)c2ccccc2S1(=O)=O [Piroxicam, reference compound]
Swelling Diameter difference (L-R) (Rats [6]; 3mg/kg daily oral, day 0-3): 1.67 mm
Joint diameter (mm) Left (Rats [6]; 3mg/kg daily oral, day 0-3, left = arthritic joint): 10.41 mm
Joint diameter (mm) Right (Rats [6]; 3mg/kg daily oral, day 0-3, right = saline control joint): 8.74 mm
% Change (Rats [6]; joint diameter, 3mg/kg daily oral): 19.15%
% Change (Rats [6]; patellar bone mass, 3mg/kg daily oral): -27.74%
protection against bone loss (Rats [6]; patellar bone mass, arthritic groups): greatest protection against bone loss
Bone loss Left-Right (Rats [6]; patellar bone, 3mg/kg daily oral): -1.31 mg
Bone mass (mg) Left (Rats [6]; patellar bone, 3mg/kg daily oral, left = arthritic joint): 3.07 mg
Bone mass (mg) Right (Rats [6]; patellar bone, 3mg/kg daily oral, right = saline control joint): 4.21 mg
